The text below walks through data of patent US6545182B2, “Methods and compositions for modulating alpha adrenergic receptor activity” (Allergan Sales, Inc., priority 2000, dated 2003).

As usually defined, the EC50 is the midpoint of the concentration-response curve. The low end stands for a more potent agent, the high end for a less potent agent.

Holding throughout (format): cell-based
Assay [1] deals with T1, alpha 2B adrenergic receptor (Homo sapiens, UniProt P18089).
T1 construct: expressed in transfected cells; host or cells: NIH-3T3 cells, transient cotransfection by calcium phosphate
T1 sequence (P18089 1-450): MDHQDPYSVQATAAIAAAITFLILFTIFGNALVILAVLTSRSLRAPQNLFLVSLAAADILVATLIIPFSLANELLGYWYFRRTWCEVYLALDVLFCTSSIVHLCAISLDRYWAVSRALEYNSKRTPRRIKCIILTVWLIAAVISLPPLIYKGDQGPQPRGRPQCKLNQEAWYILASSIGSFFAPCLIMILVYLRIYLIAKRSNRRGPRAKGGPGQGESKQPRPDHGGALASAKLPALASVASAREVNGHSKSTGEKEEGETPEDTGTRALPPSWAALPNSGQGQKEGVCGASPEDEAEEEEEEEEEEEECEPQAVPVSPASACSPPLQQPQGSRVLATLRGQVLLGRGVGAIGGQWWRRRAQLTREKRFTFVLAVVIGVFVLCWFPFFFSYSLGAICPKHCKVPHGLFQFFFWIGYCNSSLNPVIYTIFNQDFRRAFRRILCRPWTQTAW
As to the kind of experiment: RSAT (Receptor Selection and Amplification Technology) assay, alpha 2B. The following applies: for EC50: NIH-3T3 cells cotransfected with receptor and Gq/i5; for efficacy or intrinsic activity (value in parentheses) Alpha 2B: ratio of maximal effect to that of standard full agonist brimonidine. As to the method:
(§1) Activity was measured using the RSAT (Receptor Selection and Amplification Technology) assay, developed by Receptor Technologies, Inc. of Winooski, Vt. (now Acadia Pharmaceuticals of San Diego, Calif.), adapted for use with recombinant alpha2 adrenergic receptors in collaboration with Allergan. The assay measures receptor-mediated loss of contact inhibition that results in selective proliferation of receptor-containing cells in a mixed population of confluent cells. The increase in cell number is assessed with an appropriate transfected marker gene such as β-galactosidase, the activity of which can be easily measured in a 96-well format. Receptors that activate the G protein, Gq, elicit this response. Alpha2 receptors, which normally couple to Gi, activate the RSAT response when coexpressed with a hybrid Gq protein that has a Gi receptor recognition domain, called Gq/i5.
(§2) The assay is conducted as follows. NIH-3T3 cells are plated at a density of 2×10^6 cells in 15 cm dishes and maintained in Dulbecco's modified Eagle's medium supplemented with 10% calf serum. One day later, cells are cotransfected by calcium phosphate precipitation with mammalian expression plasmids encoding p-SV-β-galactosidase (5-10 μg), receptor (1-2 μg) and G protein (1-2 μg). 40 μg salmon sperm DNA may also be included in the transfection mixture to increase transfection efficiency. Fresh media is added on the following day and 1-2 days later, cells are harvested and frozen in 50 assay aliquots. Transfectant cells are thawed and 100 μl added to 100 μl aliquots of various concentrations of drugs in triplicate in 96-well dishes. Incubations continue 72-96 hr at 37°. After washing with phosphate-buffered saline, β-galactosidase enzyme activity is determined by adding 200 μl of the chromogenic substrate (consisting of 3.5 mM o-nitrophenyl-β-D-galactopyranoside and 0.5% of the non-ionic surfactant nonidet P-40 in phosphate buffered saline), incubating overnight at 30° and measuring optical density at 420 nm. The absorbency is a measure of enzyme activity, which depends on cell number and reflects a receptor-mediated cell proliferation. The EC50 and maximal effect of each drug at each alpha2 receptor is determined. The efficacy or intrinsic activity is calculated as a ratio of the maximal effect of the drug to the maximal effect of a standard full agonist for each receptor subtype. Brimonidine, also called UK14304, is used as the standard agonist for the alpha2A, alpha2B and alpha2C receptors. The RSAT assay is also discussed in Messier et al. (1995) High throughput assays of cloned adrenergic, muscarinic, neurokinin and neurotrophin receptors in living mammalian cells, Pharmacol. Toxicol. 76:308-11; see also Conklin et al. (1993) Substitution of three amino acids switches receptor specificity of Gqα to that of Giα, Nature 363:274-6; Both of these papers are incorporated by reference herein.

Assay [2] concerns the target T2, alpha 2C adrenergic receptor (Homo sapiens, UniProt P18825).
T2 construct: expressed in transfected cells; host or cells: NIH-3T3 cells, transient cotransfection by calcium phosphate
T2 sequence (P18825 1-462): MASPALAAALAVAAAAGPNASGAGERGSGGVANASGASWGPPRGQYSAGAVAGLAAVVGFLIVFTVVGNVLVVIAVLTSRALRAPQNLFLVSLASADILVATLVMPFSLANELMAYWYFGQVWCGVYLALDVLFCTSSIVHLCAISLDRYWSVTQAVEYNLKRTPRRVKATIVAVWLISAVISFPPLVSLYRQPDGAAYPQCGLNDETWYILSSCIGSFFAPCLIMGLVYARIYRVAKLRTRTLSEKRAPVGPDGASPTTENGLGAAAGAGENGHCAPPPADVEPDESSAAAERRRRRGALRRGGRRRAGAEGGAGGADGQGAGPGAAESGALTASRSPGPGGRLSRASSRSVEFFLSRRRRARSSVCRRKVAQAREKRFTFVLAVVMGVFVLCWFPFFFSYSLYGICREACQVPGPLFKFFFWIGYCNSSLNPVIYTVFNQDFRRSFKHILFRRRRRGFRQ
The assay can be described thus: RSAT (Receptor Selection and Amplification Technology) assay, alpha 2C. The conditions noted are these: for EC50: NIH-3T3 cells cotransfected with receptor and Gq/i5; for efficacy or intrinsic activity (value in parentheses) Alpha 2C: ratio of maximal effect to that of standard full agonist brimonidine. As to the method:
as §1, §2

Assay [3] addresses T3, alpha 2A adrenergic receptor (Homo sapiens, UniProt P08913).
T3 construct: expressed in transfected cells; host or cells: NIH-3T3 cells, transient cotransfection by calcium phosphate
T3 sequence (P08913 1-465): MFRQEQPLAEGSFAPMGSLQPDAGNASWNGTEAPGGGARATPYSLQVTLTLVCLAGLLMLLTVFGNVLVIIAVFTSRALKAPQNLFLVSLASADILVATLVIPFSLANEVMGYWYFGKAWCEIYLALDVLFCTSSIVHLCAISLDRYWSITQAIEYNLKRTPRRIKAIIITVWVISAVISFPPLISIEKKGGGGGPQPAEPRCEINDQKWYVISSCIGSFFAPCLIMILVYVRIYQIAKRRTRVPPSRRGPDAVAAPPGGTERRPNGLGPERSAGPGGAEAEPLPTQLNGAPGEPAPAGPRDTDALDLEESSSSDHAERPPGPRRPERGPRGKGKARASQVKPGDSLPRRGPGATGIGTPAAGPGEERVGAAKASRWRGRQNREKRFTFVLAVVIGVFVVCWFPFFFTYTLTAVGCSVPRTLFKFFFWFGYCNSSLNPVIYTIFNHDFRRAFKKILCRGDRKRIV
As to the kind of experiment: RSAT (Receptor Selection and Amplification Technology) assay, alpha 2A. The conditions noted are these: for EC50: NIH-3T3 cells cotransfected with receptor and Gq/i5. As to the method:
as §1, §2

With `OCCNC(=S)NCc1ccccc1C(F)(F)F`, in assay [1], the EC50 was 694 nM and the “efficacy or intrinsic activity (value in parentheses) Alpha 2B” value was determined as 0.93. Also, in assay [2], the midpoint of the response, the EC50, lay at 783 nM and the “efficacy or intrinsic activity (value in parentheses) Alpha 2C” value is 0.4. In assay [3], this compound had an EC50 of no less than 210000 nM.

Consider `OCCNC(=S)NCc1cccc(C(F)(F)F)c1`, for which the EC50 was 495 nM in assay [1], no less than 210000 nM in assay [2] and no less than 210000 nM in assay [3]. For the same compound, in assay [1], the “efficacy or intrinsic activity (value in parentheses) Alpha 2B” value is 0.73.

Take `OCCNC(=S)NCc1cccc(OC(F)(F)F)c1`: the 50% effective concentration (EC50) in assay [1] was 2390 nM; in assay [2] it was no less than 210000 nM; in assay [3], no less than 210000 nM. For the same compound, in assay [1], the “efficacy or intrinsic activity (value in parentheses) Alpha 2B” value came to 0.55.

With `Cc1ccccc1CNC(=S)NCCO`, the EC50 in assay [1] is 174 nM; in assay [2], no less than 210000 nM; in assay [3] it was no less than 210000 nM. Moreover, the “efficacy or intrinsic activity (value in parentheses) Alpha 2B” value in assay [1] turned out to be 0.7.

As to `Cc1cccc(CNC(=S)NCCO)c1`, in assay [1], it took 913 nM to reach a half-maximal effect (EC50) and the “efficacy or intrinsic activity (value in parentheses) Alpha 2B” value is given as 0.9. In assay [2], it took 602 nM to reach a half-maximal effect (EC50) and the “efficacy or intrinsic activity (value in parentheses) Alpha 2C” value worked out at 0.3. The 50% effective concentration (EC50) in assay [3] is no less than 210000 nM.

As to `Cc1ccc(CNC(=S)NCCO)cc1`, in assay [1], the concentration for a half-maximal effect (EC50) worked out at 59 nM and the “efficacy or intrinsic activity (value in parentheses) Alpha 2B” value is 0.6. For the same compound, in assay [2], a half-maximal effect (EC50) was put at 1810 nM and the “efficacy or intrinsic activity (value in parentheses) Alpha 2C” value turned out to be 0.4. Further, the EC50 in assay [3] is no less than 210000 nM.

Regarding `COc1cccc(CNC(=S)NCCO)c1`, the values for the EC50 in assay [1], in assay [2] and in assay [3] were 898 nM, no less than 210000 nM and no less than 210000 nM, respectively. The “efficacy or intrinsic activity (value in parentheses) Alpha 2B” value in assay [1] came to 0.40.

As for `OCCNC(=S)NCc1c(F)c(F)cc(F)c1F`, in assay [1], the midpoint of the response, the EC50, lay at 243 nM and the “efficacy or intrinsic activity (value in parentheses) Alpha 2B” value is 0.9. Further, in assay [2], the concentration giving a half-maximal response (EC50) came out at 2370 nM and the “efficacy or intrinsic activity (value in parentheses) Alpha 2C” value was 0.51. In assay [3], this compound yielded an EC50 of no less than 210000 nM.

As for `OCCNC(=S)NCc1cc(F)ccc1O`, in assay [1], the response was half-maximal at 27 nM (EC50) and the “efficacy or intrinsic activity (value in parentheses) Alpha 2B” value was 1.20. In assay [2], the half-maximal effective concentration (EC50) stood at 144 nM and the “efficacy or intrinsic activity (value in parentheses) Alpha 2C” value came to 0.74. This compound also had an EC50 in assay [3] of no less than 210000 nM.

Turning to `OCCNC(=S)NCc1c(F)cc(F)c(F)c1F`, the EC50 was 2050 nM in assay [1], no less than 210000 nM in assay [2] and no less than 210000 nM in assay [3]. In addition, the “efficacy or intrinsic activity (value in parentheses) Alpha 2B” value in assay [1] worked out at 0.89.

In the case of `OCCNC(=S)NCc1c(F)cccc1I`, the results for the EC50 in assay [1], in assay [2] and in assay [3] were 141 nM, greater than 2000 nM and no less than 210000 nM, respectively. For the same compound, the “efficacy or intrinsic activity (value in parentheses) Alpha 2B” value in assay [1] was 1.08.

Take `OCCNC(=S)NCc1cccc(I)c1F`: the figures for the EC50 in assay [1], in assay [2] and in assay [3] were 2 nM, 23 nM and 62 nM, respectively. The “efficacy or intrinsic activity (value in parentheses) Alpha 2B” value in assay [1] was found to be 1.35. The “efficacy or intrinsic activity (value in parentheses) Alpha 2C” value in assay [2] was found to be 0.91. The “efficacy or intrinsic activity (value in parentheses) Alpha 2A” value in assay [3] (ratio of maximal effect to that of standard full agonist brimonidine) amounted to 0.85.

As for `OCCNC(=S)NCc1cc(I)ccc1F`, in assay [1], the half-maximal effective concentration (EC50) is 49 nM and the “efficacy or intrinsic activity (value in parentheses) Alpha 2B” value was determined as 0.76. For the same compound, in assay [2], the EC50 came to 322 nM and the “efficacy or intrinsic activity (value in parentheses) Alpha 2C” value was found to be 0.68. Moreover, the EC50 in assay [3] was no less than 210000 nM.

For `OCCNC(=S)NCc1c(Br)ccc(I)c1F`, the half-maximal effective concentration (EC50) in assay [1] is 70 nM; in assay [2], no less than 210000 nM; in assay [3] it was no less than 210000 nM. In assay [1], the “efficacy or intrinsic activity (value in parentheses) Alpha 2B” value turned out to be 0.49.

Take `OCCNC(=S)NCc1ccc(F)c(Br)c1F`: in assay [1], a half-maximal response (EC50) required 138 nM and the “efficacy or intrinsic activity (value in parentheses) Alpha 2B” value amounted to 1.01. In addition, in assay [2], a half-maximal effect (EC50) was put at 786 nM and the “efficacy or intrinsic activity (value in parentheses) Alpha 2C” value is 0.66. Besides, the 50% effective concentration (EC50) in assay [3] was no less than 210000 nM.

As for `OCCNC(=S)NCc1c(Br)ccc(F)c1F`, the EC50 in assay [1] was 48 nM; in assay [2], no less than 210000 nM; in assay [3], no less than 210000 nM. Moreover, the “efficacy or intrinsic activity (value in parentheses) Alpha 2B” value in assay [1] was 0.60.
